Reference: patent US12384797B2, “Thioeno[3,2-b] pyridin-7-amine compounds for treating familial dysautonomia” (PTC THERAPEUTICS, INC., priority 2019, dated 2025)

Test system: Elongator complex protein 1 (ELP1, also referred to as IKBKAP)
Test: IKBKAP-HTRF assay (IKBKAP protein in lysates of FD patient-derived fibroblasts)
Format: cell-based, human
Settings: 48 hours incubation, 7-point concentration curve
Outline: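 Sandwich HTRF with two labelled anti-IKAP antibodies (overnight, 4 °C) measured IKBKAP in lysates of FD patient fibroblasts. Cells were exposed to compound for 48 h at 37 °C (7-point curve, 3.16-fold steps, triplicates). EC2x is the dose doubling IKBKAP versus DMSO control; MFI is sample ΔF divided by vehicle ΔF.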

Row | Compound | EC2x for IKBKAP protein expression (concentration producing two times the amount of IKBKAP protein vs DMSO vehicle control) | MFI (maximum fold increase in IKBKAP protein abundance relative to the vehicle control)
1 | CC[C@H](N)Cc1sc2c(NCc3cccs3)cc(Cl)nc2c1C [Compound 33, 2-[(2S)-2-aminobutyl]-5-chloro-3-methyl-N-[(thiophen-2-yl)methyl]thieno[3,2-b]pyridin-7-amine] | ***** (≤0.005 μM is indicated by five stars (*****)) | ***** (>4.9 is indicated by five stars (*****))
2 | C[C@H](N)C(F)c1sc2c(NCc3nccs3)cc(Cl)nc2c1Br (stereo partly drawn) [Compound 161, 2-[(2S)-2-amino-1-fluoropropyl]-3-bromo-5-chloro-N-[(1,3-thiazol-2-yl)methyl]thieno[3,2-b]pyridin-7-amine] | ***** (≤0.005 μM is indicated by five stars (*****)) | *** (between >2.9 and ≤3.9 is indicated by three stars (***))
3 | Cc1c(C(C)CN)sc2c(NCc3ccco3)cc(Cl)nc12 (centres unmarked) [Compound 148, 2-(1-aminopropan-2-yl)-5-chloro-N-[(furan-2-yl)methyl]-3-methylthieno[3,2-b]pyridin-7-amine] | ***** (≤0.005 μM is indicated by five stars (*****)) | **** (between >3.9 and ≤4.9 is indicated by four stars (****))
4 | Cc1c(C[C@@H](N)CC#N)sc2c(NCc3ccco3)cc(Cl)nc12 [Compound 111, (3S)-3-amino-4-(5-chloro-7-{[(furan-2-yl)methyl]amino}-3-methylthieno[3,2-b]pyridin-2-yl)butanenitrile] | **** (between >0.005 μM and ≤0.02 μM is indicated by four stars (****)) | ***** (>4.9 is indicated by five stars (*****))
5 | C[C@H](N)Cc1sc2c(NCc3cccs3)cc(C#N)nc2c1C#N [Compound 102, 2-[(2S)-2-aminopropyl]-7-{[(thiophen-2-yl)methyl]amino}thieno[3,2-b]pyridine-3,5-dicarbonitrile] | ***** (≤0.005 μM is indicated by five stars (*****)) | ***** (>4.9 is indicated by five stars (*****))
6 | C[C@H](N)C(O)c1sc2c(NCc3ccco3)cc(Cl)nc2c1Br (stereo partly drawn) [Compound 153, (2S)-2-amino-1-(3-bromo-5-chloro-7-{[(furan-2-yl)methyl]amino}thieno[3,2-b]pyridin-2-yl)propan-1-ol] | *** (between >0.02 μM and ≤0.5 μM is indicated by three stars (***)) | ** (between >1.9 and ≤2.9 is indicated by two stars (**))
7 | N[C@H](Cc1sc2c(NCc3ccco3)cc(Cl)nc2c1Cl)C(=O)Nc1ccccc1F [Compound 120, 3-(3,5-dichloro-7-{[(furan-2-yl)methyl]amino}thieno[3,2-b]pyridin-2-yl)-N-(2-fluorophenyl)-D-alaninamide] | **** (between >0.005 μM and ≤0.02 μM is indicated by four stars (****)) | **** (between >3.9 and ≤4.9 is indicated by four stars (****))
8 | Cc1c(C[C@@H](N)C(=O)O)sc2c(NCc3ccco3)cc(Cl)nc12 [Compound 115, 3-(5-chloro-7-{[(furan-2-yl)methyl]amino}-3-methylthieno[3,2-b]pyridin-2-yl)-D-alanine] | ***** (≤0.005 μM is indicated by five stars (*****)) | ***** (>4.9 is indicated by five stars (*****))
9 | Cc1c([C@H](N)C(C)C)sc2c(NCc3ccco3)cc(Cl)nc12 [Compound 31, 2-[(1R)-1-amino-2-methylpropyl]-5-chloro-N-[(furan-2-yl)methyl]-3-methylthieno[3,2-b]pyridin-7-amine] | * (An EC2x>1 μM is indicated by one star (*)) | * (An MFI≤1.9 is indicated by one star (*))
10 | Cc1c(C[C@@H](N)C(=O)Nc2ccncc2)sc2c(NCc3ccco3)cc(Cl)nc12 [Compound 140, 3-(5-chloro-7-{[(furan-2-yl)methyl]amino}-3-methylthieno[3,2-b]pyridin-2-yl)-N-pyridin-4-yl-D-alaninamide] | ***** (≤0.005 μM is indicated by five stars (*****)) | ***** (>4.9 is indicated by five stars (*****))
11 | Cc1c(C[C@@H](N)CF)sc2c(NCc3cccs3)cc(Cl)nc12 [Compound 91, 2-[(2R)-2-amino-3-fluoropropyl]-5-chloro-3-methyl-N-[(thiophen-2-yl)methyl]thieno[3,2-b]pyridin-7-amine] | ***** (≤0.005 μM is indicated by five stars (*****)) | ***** (>4.9 is indicated by five stars (*****))
12 | N#Cc1cc(NCc2ccco2)c2scc(C#N)c2n1 [Compound 15, 7-{[(furan-2-yl)methyl]amino}thieno[3,2-b]pyridine-3,5-dicarbonitrile] | * (An EC2x>1 μM is indicated by one star (*)) | * (An MFI≤1.9 is indicated by one star (*))
13 | C[C@H](N)C(F)c1sc2c(NCc3cccs3)cc(Cl)nc2c1Cl (stereo partly drawn) [Compound 130, 2-[(2S)-2-amino-1-fluoropropyl]-3,5-dichloro-N-[(thiophen-2-yl)methyl]thieno[3,2-b]pyridin-7-amine] | ***** (≤0.005 μM is indicated by five stars (*****)) | ***** (>4.9 is indicated by five stars (*****))
14 | C[C@H](N)C(=O)c1sc2c(NCc3cccs3)cc(Cl)nc2c1Br [Compound 156, (2S)-2-amino-1-(3-bromo-5-chloro-7-{[(thiophen-2-yl)methyl]amino}thieno[3,2-b]pyridin-2-yl)propan-1-one] | *** (between >0.02 μM and ≤0.5 μM is indicated by three stars (***)) | *** (between >2.9 and ≤3.9 is indicated by three stars (***))
15 | FC(F)Oc1csc2c(NCc3cccs3)cc(Cl)nc12 [Compound 149, 5-chloro-3-(difluoromethoxy)-N-[(thiophen-2-yl)methyl]thieno[3,2-b]pyridin-7-amine] | *** (between >0.02 μM and ≤0.5 μM is indicated by three stars (***)) | **** (between >3.9 and ≤4.9 is indicated by four stars (****))
16 | Cc1c(C(C)CO)sc2c(NCc3ccco3)cc(Cl)nc12 (centres unmarked) [Compound 146, 2-(5-chloro-7-{[(furan-2-yl)methyl]amino}-3-methylthieno[3,2-b]pyridin-2-yl)propan-1-ol] | * (An EC2x>1 μM is indicated by one star (*)) | * (An MFI≤1.9 is indicated by one star (*))
17 | C[C@H](N)Cc1cc2nc(Cl)cc(NCc3ccco3)c2s1 [Compound 16, 2-[(2S)-2-aminopropyl]-5-chloro-N-[(furan-2-yl)methyl]thieno[3,2-b]pyridin-7-amine] | ***** (≤0.005 μM is indicated by five stars (*****)) | **** (between >3.9 and ≤4.9 is indicated by four stars (****))
18 | Cc1c(C[C@H](C)N)sc2c(NCc3ncc(F)s3)cc(Cl)nc12 [Compound 129, 2-[(2S)-2-aminopropyl]-5-chloro-N-[(5-fluoro-1,3-thiazol-2-yl)methyl]-3-methylthieno[3,2-b]pyridin-7-amine] | **** (between >0.005 μM and ≤0.02 μM is indicated by four stars (****)) | ***** (>4.9 is indicated by five stars (*****))
19 | Cc1c(C[C@H](C)N)sc2c(NCc3cccs3)cc(Cl)nc12 [Compound 28, 2-[(2S)-2-aminopropyl]-5-chloro-3-methyl-N-[(thiophen-2-yl)methyl]thieno[3,2-b]pyridin-7-amine] | ***** (≤0.005 μM is indicated by five stars (*****)) | ***** (>4.9 is indicated by five stars (*****))
20 | C[C@H](N)Cc1sc2c(NCc3nccs3)cc(Cl)nc2c1Cl [Compound 38, 2-[(2S)-2-aminopropyl]-3,5-dichloro-N-[(1,3-thiazol-2-yl)methyl]thieno[3,2-b]pyridin-7-amine] | ***** (≤0.005 μM is indicated by five stars (*****)) | ***** (>4.9 is indicated by five stars (*****))
21 | Cc1c(C[C@H](C)N)sc2c(NCc3ccccc3F)cc(Cl)nc12 [Compound 29, 2-[(2S)-2-aminopropyl]-5-chloro-N-[(2-fluorophenyl)methyl]-3-methylthieno[3,2-b]pyridin-7-amine] | ***** (≤0.005 μM is indicated by five stars (*****)) | ***** (>4.9 is indicated by five stars (*****))
22 | N[C@H](CF)Cc1sc2c(NCc3nccs3)cc(Cl)nc2c1Br [Compound 66, 2-[(2S)-2-amino-3-fluoropropyl]-3-bromo-5-chloro-N-[(1,3-thiazol-2-yl)methyl]thieno[3,2-b]pyridin-7-amine] | *** (between >0.02 μM and ≤0.5 μM is indicated by three stars (***)) | * (An MFI≤1.9 is indicated by one star (*))
